Source: publication PMC6544300, “Mechanism of the efflux transport of demethoxycurcumin-O-glucuronides in HeLa cells stably transfected with UDP-glucuronosyltransferase 1A1” (PLoS ONE, 2019)
Read-outs that look alike come from different tables or passages of the source.

Columns and labels:
BCRP transporter = tested on: BCRP transporter; parameters: method as in PMID 25587128; conditions: cited from earlier work
BCRP = molecular target: T1, BCRP (Homo sapiens, UniProt Q9UNQ0); parameters: method as in PMID 28925930; conditions: following curcumin pretreatment; subjects with ABCG2 421CC genotype; cited from earlier work
T1 sequence (Q9UNQ0 1-655): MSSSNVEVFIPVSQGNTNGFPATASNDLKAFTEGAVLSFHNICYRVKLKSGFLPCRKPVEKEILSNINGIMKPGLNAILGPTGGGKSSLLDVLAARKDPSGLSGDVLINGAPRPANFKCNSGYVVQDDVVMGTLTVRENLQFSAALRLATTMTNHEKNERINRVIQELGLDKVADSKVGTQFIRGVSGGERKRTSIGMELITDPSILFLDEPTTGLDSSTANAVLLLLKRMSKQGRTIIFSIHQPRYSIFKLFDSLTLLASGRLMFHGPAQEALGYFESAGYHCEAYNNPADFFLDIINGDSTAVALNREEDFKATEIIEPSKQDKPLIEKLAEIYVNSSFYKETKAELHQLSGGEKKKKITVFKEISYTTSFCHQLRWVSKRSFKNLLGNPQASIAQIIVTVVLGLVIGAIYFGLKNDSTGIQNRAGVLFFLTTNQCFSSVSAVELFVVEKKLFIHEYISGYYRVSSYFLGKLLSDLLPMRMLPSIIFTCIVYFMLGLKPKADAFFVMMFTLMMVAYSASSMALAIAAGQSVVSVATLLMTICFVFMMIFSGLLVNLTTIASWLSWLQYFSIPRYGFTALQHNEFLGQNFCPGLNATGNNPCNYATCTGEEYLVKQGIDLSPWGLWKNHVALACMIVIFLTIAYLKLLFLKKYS

MRP1 = tested on: MRP1; parameters: method as in PMID 26502886; conditions: MRP1-mediated transport; cited from earlier work
MRP2 = tested on: MRP2; parameters: method as in PMID 26502886; conditions: MRP2-mediated transport; cited from earlier work
CYP3As = tested on: CYP3As; parameters: method as in PMID 18480186; conditions: cited from earlier work
[1] = parameters: method as in PMID 24480327; conditions: 2 g curcuminoids incl. 12% DMC orally, two healthy volunteers; below detection limit; cited from earlier work
UGT1A3 = tested on: UGT1A3; parameters: method as in PMID 17628876; conditions: cited from earlier work
[2] = tested on: human intestinal P-glycoprotein (P-gp); parameters: method as in PMID 19879740; conditions: cited from earlier work
UGTs = tested on: UGTs; parameters: method as in PMID 18480186; conditions: cited from earlier work
HeLa1A1 cells = assay: Toxicity of DMC toward HeLa1A1 cells during excretion experiments; type: cell-based, human; conditions: DMC 4 μM
CYP2C9 = tested on: CYP2C9; parameters: method as in PMID 21287405; conditions: human CYP2C9; cited from earlier work
UGT2B7 = tested on: UGT2B7; parameters: method as in PMID 17628876; conditions: cited from earlier work
SULTs = tested on: SULTs; parameters: method as in PMID 18480186; conditions: cited from earlier work
UGT1A10 = tested on: UGT1A10; parameters: method as in PMID 17628876; conditions: cited from earlier work
CYP1A2 = tested on: CYP1A2; parameters: method as in PMID 21287405; conditions: human CYP1A2; cited from earlier work
UGT1A1 [3] = molecular target: T2, UGT1A1 (Homo sapiens, UniProt P22309); assay: DMC-O-glucuronidation kinetics by recombinant UGT1A1; type: in vitro ADME; parameters: purchased Corning Biosciences; conditions: for CLint: Vmax/Km; for Vmax: UGT1A1, Michaelis-Menten model
T2 sequence (P22309 26-533): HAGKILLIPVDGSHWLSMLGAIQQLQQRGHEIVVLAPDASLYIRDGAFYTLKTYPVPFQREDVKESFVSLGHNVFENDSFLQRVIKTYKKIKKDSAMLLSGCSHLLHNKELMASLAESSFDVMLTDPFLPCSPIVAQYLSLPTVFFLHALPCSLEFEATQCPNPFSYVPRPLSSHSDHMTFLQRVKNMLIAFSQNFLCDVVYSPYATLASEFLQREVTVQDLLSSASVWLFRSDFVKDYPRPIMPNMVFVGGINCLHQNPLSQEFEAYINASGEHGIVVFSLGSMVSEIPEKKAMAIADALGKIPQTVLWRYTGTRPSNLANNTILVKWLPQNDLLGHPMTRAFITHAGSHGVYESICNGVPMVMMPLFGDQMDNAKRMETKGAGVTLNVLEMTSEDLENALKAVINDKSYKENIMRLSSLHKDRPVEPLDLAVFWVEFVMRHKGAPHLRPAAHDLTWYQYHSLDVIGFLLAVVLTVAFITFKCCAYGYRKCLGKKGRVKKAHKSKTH
Experimental: (§1) The glucuronidation assay was performed as previously described. Briefly, alamethicin (22 μg/mL), D-saccharic-1,4-lactone (4.4 mM), MgCl2 (0.88 mM), UGT1A1 (1.0 mg/mL) or HeLa1A1 cell lysates (2.3 mg/mL) and DMC (0.5 to 40 μM) were mixed in a 50 mM Tris buffer (pH 7.4). After a preincubation at 37°C for 5 min, UDPGA (3.5 mM) was added to the incubation system, and the mixture was further incubated. After 30 min, the reactions were terminated by the addition of ice-cold acetonitrile (200 μL). The mixed samples were centrifuged at 13,800 x g for 10 min, and the supernatant was analyzed using UHPLC.
(§2) The best model was selected based on a visual inspection of the Eadie-Hofstee plots. Briefly, the rates (V) of glucuronide formation at various substrate concentrations (S) were fitted based on the standard Eq (3). Km represents the Michaelis-Menten constant and Vmax represents the maximum rate of glucuronidation. The intrinsic clearance (CLint) was derived from Vmax/Km. Model fitting and parameter estimation were performed by GraphPad Prism V5 software (SanDiego, CA, USA).

[4] = parameters: method as in earlier work; conditions: cited from earlier work
UGT1A1 [5] = tested on: UGT1A1; parameters: method as in PMID 17628876; conditions: cited from earlier work
CYP3A4 = tested on: CYP3A4; parameters: method as in PMID 21287405; conditions: human CYP3A4; cited from earlier work
UGT1A8 = tested on: UGT1A8; parameters: method as in PMID 17628876; conditions: cited from earlier work
HeLa1A1 cell lysate = molecular target: T3, HeLa1A1 cell lysate (Homo sapiens, UniProt P22309); assay: DMC-O-glucuronidation kinetics by HeLa1A1 cell lysate; type: in vitro ADME; conditions: for Km / Vmax: Michaelis-Menten model; for CLint: Vmax/Km
T3 construct: expressed in transfected cells; host or cells: HeLa cells stably overexpressing UGT1A1 (HeLa1A1), used as cell lysate
T3 sequence (P22309 26-533): T2 sequence (P22309 26-533)
Experimental: HeLa1A1 cells were grown in 10-cm dishes for 72 h and then washed and harvested in 50 mM Tris buffer (pH 7.4). The collected cells were sonicated using […] in an ice-cold water bath (4°C). Subsequently, the cell lysates were centrifuged at 13,800 x g for 10 min (4°C). The supernatant was collected for use in the UGT glucuronidation activity assay. The protein concentration was determined using the bicinchoninic acid (BCA) assay (Beyotime, Shanghai, China). Due to the thermal stability of UGT1A1, the glucuronidation activity of UGT1A1 was not affected during sonication process.
as §1, §2

2C9 = tested on: 2C9; parameters: method as in PMID 18480186; conditions: cited from earlier work
[6] = formation of G1, HeLa1A1 cell lysate
[7] = formation of G2, HeLa1A1 cell lysate

In the case of `COc1cc(/C=C/C(=O)CC(=O)/C=C/c2ccc(O)c(OC)c2)ccc1O` [curcumin], the Ki (BCRP transporter) is given as 0.7 µM, the “increase in AUC of orally administered salazosulfapyridine (SASP)” value (BCRP) is given as 3.2 fold and the IC50 (MRP1) is given as 15 µM. The IC50 (MRP2) was 5 µM.
In the case of Demethoxycurcumin [DMC], the IC50 (CYP3As) is given as 31.5 µM, the DMC concentration [1] is given as < 2.0 ng/mL and the “catalytic activity (glucuronidation of DMC)” value (“catalytic activity” for short) (UGT1A3) is given as “less than 1100 pmol/min/mg”. For the same compound, the “inhibition of P-gp activities” value [2] was “capable of inhibiting”, the IC50 (UGTs) was 13.9 µM and the “toxicity toward HeLa1A1 cells” value (HeLa1A1 cells) was “did not exert significant toxicity”. The IC50 (CYP2C9) was 1.4 µM, the “catalytic activity” value (UGT2B7) was “less than 1100 pmol/min/mg” and the IC50 (SULTs) was 1.7 µM. The “catalytic activity” value (UGT1A10) was “less than 1100 pmol/min/mg”, the IC50 (CYP1A2) was 34 µM and the Km (UGT1A1 [3]; formation of G1, UGT1A1, Michaelis-Menten model) was 4.5 ± 0.9 µM. It also gave a CLint (UGT1A1 [3]; formation of G1, UGT1A1) of 225.9 ± 47.3 µL/min/mg, a Vmax (UGT1A1 [3]; formation of G1 from DMC (0.5-40 μM)) of 1006.0 ± 62.8 pmol/min/mg and a Km (UGT1A1 [3]; formation of G2, UGT1A1, Michaelis-Menten model) of 2.7 ± 0.5 µM. For the same compound, the CLint (UGT1A1 [3]; formation of G2, UGT1A1) was 212.6 ± 38.3 µL/min/mg, the Vmax (UGT1A1 [3]; formation of G2 from DMC (0.5-40 μM)) was 576.1 ± 27.0 pmol/min/mg and the “tissue distribution of free DMC” value ([4]; heart) was ~140 ng/g. The “tissue distribution of free DMC” value ([4]; intestine) was ~150000 ng/g, the “tissue distribution of free DMC” value ([4]; kidney) was ~80 ng/g and the “tissue distribution of free DMC” value ([4]; liver) was “approximately 120 ng/g”. For the same compound, the “tissue distribution of free DMC” value ([4]; spleen) was ~50 ng/g, the “catalytic activity” value (UGT1A1 [5]) was “approximately 1600 pmol/min/mg” and the IC50 (CYP3A4) was 7 µM. For the same compound, the “catalytic activity” value (UGT1A8) was “less than 1100 pmol/min/mg”, the Km (HeLa1A1 cell lysate; [6]) was 5 ± 1.3 µM and the Vmax (HeLa1A1 cell lysate; [6]) was 264.5±22.3 ( ^***) pmol/min/mg. For the same compound, the CLint (HeLa1A1 cell lysate; [6]) was 53.0±14.5 ( ^***) μL/min/mg, the Km (HeLa1A1 cell lysate; [7]) was 3.8 ± 0.9 µM and the Vmax (HeLa1A1 cell lysate; [7]) was 167.4±11.3 (^###) pmol/min/mg. For the same compound, the CLint (HeLa1A1 cell lysate; [7]) was 43.9±10.4 (^###) μL/min/mg and the IC50 (2C9) was 8.8 µM.
